Source: publication PMC5793130, “The Peptide PnPP-19, a Spider Toxin Derivative, Activates μ-Opioid Receptors and Modulates Calcium Channels” (Toxins, 2018)

How the values were obtained:
[1] = system: μ-opioid receptors; conditions: cited from earlier work
[2] = system: calcium channels in dorsal root ganglion (DRG) neurons; type: cell-based; conditions: rat DRG neurons
Procedure: Intact neurons of rat dorsal root ganglia (DRG) were used for whole-cell patch-clamp recordings.
DRGs were isolated from adult Wistar rats (200 ± 300 g) and neurons cultured as described by Lindsay (1988) [35] with minor modifications. The neurons were isolated and washed by gravity in phosphate-buffered saline (PBS). The cells were than incubated with collagenase type IV (sigma, St. Louis, MO, USA) solution (5 mL of Dulbecco’s modified Eagle’s medium—DMEM; 10% v/v fetal bovine serum; penicillin 200 units/mL—streptomycin 200 μg/mL; 12.5 mg of collagenase type IV) for 90 min at 37 °C. After that, ganglions were washed 3 times by gravity in PBS and trypsin solution (2500–6000 BAEE U/ML, sigma, St. Louis, MO, USA) was added. In order to dissociate the DRG neurons, the ganglions were taken up and down with the use of a fine tipped transfer pipette. Cells were then incubated with the trypsin solution for 10 min at 37 °C. After the incubation period, 1 mL of bovine serum albumin (BSA) solution (16% v/v in PBS) was added and cells were more firmly dissociated. The cell suspension was added on the top of 3 mL BSA solution and centrifuged at 500× g for 6 min. The supernatant was discarded and the pellet was resuspended in complete media (DMEM media; 10% v/v fetal bovine serum; 1% v/v penicillin/streptomycin; 0.1% v/v NGF). […]

[3] = system: μ-opioid receptor-β-arrestin2 association; test: BiFC β-arrestin2 recruitment in HEK293T cells; type: cell-based; conditions: HEK293T coexpressing μ-opioid receptor-Yc and β-arrestin2-Yn; 10^−10 M–10^−4 M, 60 min, 37 °C; normalized by 10 μM DAMGO (100%); n = 5
Procedure: HEK293T were cultured in DMEM (Sigma-Aldrich) supplemented with 10% v/v fetal bovine serum. […] To analyze whether activation of μ-opioid receptor would induce recruitment of β-arrestin2, the Bimolecular fluorescence complementation (BiFC) based detection of μ-opioid receptor-β-arrestin2 association was conducted. The cells were seeded at 33,000 cells/well onto poly (D-lysine)-coated Greiner 655,090 imaging plates. Plates were kept in a humidified incubator at 37 °C filled with 5% CO2 for 24 h. […] After that, cells were fixated with 3% paraformaldehyde in PBS for 10 min at room temperature. Then, cells were washed once with PBS and the cell nuclei were stained for 15 min with H33342 (2 μg/mL in PBS, Sigma, St. Louis, MO, USA). H33342 was then removed by a final PBS wash. Images (4 central sites/well) were acquired automatically on the IX Ultra confocal plate reader, using 405 nm/488 nm laser lines for H33342 and complemented YFP excitation, respectively. Data was analyzed by the use of MetaXpress software (version 5.3, Sunnyvale, CA, USA, 2013) as described by Liu and co-authors [38] and normalized by 10 μM of DAMGO (100%).

C[C@@H](Cc1ccsc1)NC(=O)NC[C@H](Cc1ccc(O)cc1)N(C)C [PZM21]
β-arrestin2 recruitment [1]: minimal β-arrestin2 recruitment

C=CCN1CC[C@]23c4c5ccc(O)c4O[C@H]2C(=O)CC[C@@]3(O)[C@H]1C5 [naloxone]
effect of naloxone alone on calcium current density ([2]; 10 μM naloxone): no significant effect on the current density | effect of naloxone pre-incubation on PnPP-19 inhibition of calcium current ([2]; 10 μM naloxone for 30 min, then 1 μM PnPP-19): completely blocks the activity of PnPP-19

[D-Ala^2, MePhe^4, Gly-ol^5] encephalin [DAMGO]
β-arrestin2 recruitment [3]: could clearly induce β-arrestin2 recruitment
